This note sets out measurements from the NIST ThermoML archive (doi:10.1016/j.jct.2013.03.008).

± gives the expanded uncertainty stated by the source.

The data set is described as follows: cn = amount concentration of the nth substance listed, in mol/dm3. The note with it: 313 K, Ring tensiometer.

`CCCCCCCCCCCC(=O)OCC[N+](C)(C)CCC[N+](C)(C)CCOC(=O)CCCCCCCCCCC.[Br-].[Br-]` + O: the surface tension liquid-gas (usually the force per length acting along the surface) (c1 = 0.000412) is 30.2 ± 0.5 mN/m. Consider `CCCCCCCCCCCCOC(=O)C[N+](C)(C)CCC[N+](C)(C)CC(=O)OCCCCCCCCCCCC.[Br-].[Br-]` + O, for which the surface tension liquid-gas (c1 = 0.000228) worked out at 27.2 ± 0.4 mN/m. Regarding `CCCCCCCCCCCCOC(=O)C[N+](C)(C)CC[N+](C)(C)CC(=O)OCCCCCCCCCCCC.[Br-].[Br-]` + O, the surface tension liquid-gas (c1 = 0.000168) is recorded as 26.4 ± 0.4 mN/m.
